Earlier results on one substance are cited in patent publication US20230218648A1, “USE OF HUMAN MILK OLIGOSACCHARIDES IN NUTRITIONAL COMPOSITIONS FOR ENHANCING BONE DEVELOPMENT AND/OR BONE STRENGTH” (SOCIETE DES PRODUITS NESTLE S.A., priority 2020, published 2023).

The subject of this data set is osteoclast and osteoblast biology. The conditions noted are these: reported by C.A. Cowardin et al., PNAS, 2019, 116.

For the substance 2′-fucosyllactose [2′-FL], the changes in bone-biology entry is listed as “failed to elicit changes in bone-biology”.
